{
  "source": "a melting point compilation (Tetko et al.; mined from patent text by program, amines drawn as free bases though some values may be those of a salt)",
  "data": [
    {"units": {"melting point": "°C"}, "values": [
      {"smiles": "Cc1cc(C)c(C(=O)CCCCC(=O)O)c(O)c1C", "melting point": "146 to 148"},
      {"smiles": "CN1CCN(CCC#Cc2cc3c(Nc4ccc5[nH]ccc5c4)c(C#N)cnc3s2)CC1", "melting point": "195 to 197"},
      {"smiles": "FC(F)(F)C(/C=C/c1ccc(-n2cncn2)cc1)c1cc(Cl)cc(Cl)c1", "note": "(stereo not given)", "melting point": "93 to 97"},
      {"smiles": "Cc1ccc(Sc2c(N)cc(C(=O)O)cc2S)cc1", "melting point": "178 to 182"},
      {"smiles": "O=c1c2ccccc2cc2n1CCS2(=O)=O", "melting point": "208 to 211"},
      {"smiles": "COc1ccc(-c2cc3ccc(C(=O)O)cc3o2)cc1C12CC3CC(CC(C3)C1)C2", "melting point": 290},
      {"smiles": "CCCc1nc2c(N)nc3cc(OCCCNS(=O)(=O)CCc4cccc5ccccc45)ccc3c2n1CC(C)C", "melting point": "164 to 168"},
      {"smiles": "CCCCC#CCCOc1cc(C=O)ccc1OC", "melting point": "42 to 43"},
      {"smiles": "O=C1c2ccc(Br)cc2C(=O)c2ccc(Br)cc21", "melting point": "> 280"},
      {"smiles": "COc1cnc(Cl)nc1NS(=O)(=O)c1cccc(Cl)c1Cl", "melting point": "244 to 245"},
      {"smiles": "COc1cc(-c2nc3ccc(OCCN(C)C)cc3n2Cc2ccccc2)cc(OC)c1OC", "melting point": 108},
      {"smiles": "CCC(C)(C)Nc1cccnc1N(C)C1CCN(C(=O)c2cc3cc([N+](=O)[O-])ccc3[nH]2)CC1", "melting point": "206 to 208"},
      {"smiles": "O=C1NN(C(=O)Oc2ccc(Cl)cc2)C(c2ccccc2)C1c1ccccc1", "note": "(stereo not given)", "melting point": "175 to 177"},
      {"smiles": "CC(O)c1cccc(S(N)(=O)=O)c1", "note": "(stereo not given)", "melting point": "137 to 139"},
      {"smiles": "COc1cc(C(=O)O)ccc1Cn1cc(CC(C)C(=O)N(C)C)c2ccc(C(=O)NCC3CCCC3)cc21", "note": "(stereo not given)", "melting point": "120 to 122"},
      {"smiles": "C=C1C(=O)OC2C1CCC(C)=CCCC1(C)OC21", "note": "(stereo not given)", "melting point": "112 to 113"},
      {"smiles": "COC(=O)C1=C(C)NC(C)=C(C(=O)O)[C@H]1c1cccc2nonc12", "melting point": 175},
      {"smiles": "COc1cc(C2CCN(CCO)CC2O)ccc1Nc1ncc2ccc(-c3ccccc3OC)n2n1", "note": "(stereo not given)", "melting point": "88 to 96"},
      {"smiles": "CN(C)C(=S)SC(C[N+](=O)[O-])c1ccc2c(c1)OCO2", "note": "(stereo not given)", "melting point": "122 to 124"},
      {"smiles": "Fc1cc(F)cc(NC(=S)c2ccccn2)c1", "melting point": "140 to 142"},
      {"smiles": "C=C=COc1ccc(-c2ccc(OC=C=C)cc2)cc1", "melting point": "135 to 138"},
      {"smiles": "O=C(Nc1ccc(C(=O)N2C=C3CC=CN3Cc3ccccc32)cc1)c1ccccc1F", "melting point": "257 to 260"},
      {"smiles": "Cc1ccc(C(=O)c2ccc(Cc3ccc(NS(C)(=O)=O)cc3C#N)n2C)cc1", "melting point": "171 to 172"},
      {"smiles": "CCCC(=O)NC1Cc2ccc(-c3ccc(=O)[nH]n3)cc2C1", "note": "(stereo not given)", "melting point": "228 to 229"},
      {"smiles": "C#CCNC1CCc2ccc([N+](=O)[O-])cc21", "note": "(stereo not given)", "melting point": "37 to 39"},
      {"smiles": "Cc1ccc(-c2cc(NC(=O)C3Cc4ccccc4C3)n[nH]2)cc1", "melting point": "220 to 225"},
      {"smiles": "CCc1nc2c(n1C(CC)CC)C(=O)N(C)CN2c1ccc(OC)cc1Cl", "melting point": "184 to 185"},
      {"smiles": "Nc1ccc(S(=O)(=O)C(F)(F)C(F)Cl)cc1Cl", "note": "(stereo not given)", "melting point": "98 to 99"},
      {"smiles": "Cn1cc(O)c(=O)c2cccc(F)c21", "melting point": 248},
      {"smiles": "CS(=O)(=O)OCC(C#N)(c1ccc(Cl)cc1)c1ccccc1Cl", "note": "(stereo not given)", "melting point": "124 to 127"},
      {"smiles": "Cc1cc(-c2ccc3nnn(Cc4ccc5ncccc5c4)c3n2)ccc1C(N)=O", "melting point": "235 to 237"},
      {"smiles": "CN1C(=O)C2(COc3cc4c(cc32)OCCO4)c2c(NC(=O)C(C)(C)C)cccc21", "note": "(stereo not given)", "melting point": "182 to 184"},
      {"smiles": "O=C(Nc1cccc(C(F)(F)F)c1)c1cccc(Oc2cccc(C(F)(F)F)c2)n1", "melting point": "93.1 to 93.7"},
      {"smiles": "COc1cc(C=CC(=O)OCCCCBr)ccc1O", "melting point": "86 to 89"},
      {"smiles": "CC(C)CC(=O)Nc1c(C(=O)c2cccc(C(F)(F)F)c2)[nH]c2cc(Cl)ccc12", "melting point": "179 to 180"},
      {"smiles": "Cc1cc2c(s1)CCCN(CCN1CCN(c3ncccn3)CC1)C2=O", "melting point": "137 to 139"},
      {"smiles": "CC(=NOCC(N)=O)c1ccc(Cl)cc1", "melting point": "103 to 104"},
      {"smiles": "COC(=O)c1cc(C(F)(F)F)[nH]c1-c1ccc(Cl)cc1", "melting point": "120 to 122"},
      {"smiles": "COC(=O)c1c(OC)cc(CC(C#N)=CNc2ccccc2)cc1OC", "melting point": "193 to 194"},
      {"smiles": "O=Cc1cc(O)c2c(c1)C(=O)c1cccc(O)c1C2=O", "melting point": "198 to 200"},
      {"smiles": "ClCc1cccc2c(C3CCCCC3)nccc12", "melting point": "88.4 to 89.4"},
      {"smiles": "CCCCCCCCCOP(=O)(CNC(=O)Nc1c(C(C)C)cccc1C(C)C)OCC", "note": "(stereo not given)", "melting point": "66 to 70"},
      {"smiles": "CC(=O)SCCc1cn2cccnc2n1", "melting point": "122 to 124"},
      {"smiles": "CC1CCC(=NN)c2ncc(C(=O)O)c(=O)n21", "note": "(stereo not given)", "melting point": "202 to 203"},
      {"smiles": "CC(=C1SC(=O)NC1=O)c1ccc(NCCOc2c(-c3ccc(F)cc3)n(C)c3ccccc3c2=O)cc1", "melting point": "130 to 132"},
      {"smiles": "COc1ccc(S(=O)(=O)CC(CS(=O)(=O)c2ccc(OC)cc2)C(=O)O)cc1", "melting point": "174 to 175"},
      {"smiles": "COc1cc2c3c4c(c(-c5ccccc5Cl)cc3n(C)c2cc1OCc1ccccc1)C(=O)NC4=O", "melting point": "282 to 285"},
      {"smiles": "O=c1[nH]c(CCc2ccccc2OCc2ccccc2)ccc1-c1nnn[nH]1", "melting point": "211 to 213"},
      {"smiles": "COC(=O)c1ccc(OCCNC(=O)C2Cc3ccccc3N2S(=O)(=O)c2ccc(-c3cccc(C(F)(F)F)c3)cc2)cc1Cl", "note": "(stereo not given)", "melting point": "63 to 67"},
      {"smiles": "CS(=O)(=O)c1ccc(-n2cc(CO)nc2-c2ccc(Cl)cc2)cc1", "melting point": "205 to 208"},
      {"smiles": "CCOC(=O)C(=Cc1ccc(O)cc1)C(=O)CCl", "melting point": "92 to 95"},
      {"smiles": "NC(=S)C1(c2ccccn2)CCCS1", "note": "(stereo not given)", "melting point": 192},
      {"smiles": "Cc1cc(Br)cc(C)c1OCCO", "melting point": "47 to 48"},
      {"smiles": "CC(C(N)=O)n1c(-c2ccc(Cl)cc2)nc2cccnc21", "note": "(stereo not given)", "melting point": "202 to 204"},
      {"smiles": "CNC(=O)c1ccc(Nc2nc(Nc3cc4c(cc3OC)CCN(Cc3ncco3)CC4)ncc2Cl)c(OC)c1", "melting point": "85 to 96"},
      {"smiles": "COc1cc(C(=O)O)c(-n2c3ccccc3c3ccccc32)cc1C(=O)O", "melting point": 298},
      {"smiles": "CCOC(=O)c1cc(=O)c2ccc(OCCCCCOc3ccc(C(C)=O)c(O)c3)cc2o1", "melting point": "136 to 137"},
      {"smiles": "O=C(O)c1cccc([N+](=O)[O-])c1Nc1ccc(Br)cc1", "melting point": "194 to 196"},
      {"smiles": "CC1SCCCNc2ccccc21", "note": "(stereo not given)", "melting point": "72 to 74"},
      {"smiles": "Cc1cccc(NC(=O)NC2N=C(c3ccccc3F)c3ccccc3N(Cc3cccnc3)C2=O)c1", "note": "(racemic)", "melting point": "242 to 243"},
      {"smiles": "CCCOCCN(CC)c1ccc(-c2ccc3c(c2)C=C(C(=O)O)CCN3C=O)cc1", "melting point": "169 to 171"},
      {"smiles": "CC(=O)Oc1cc(S(=O)(=O)Oc2ccc(C(=O)c3c(Cc4ccccc4)oc(C)c3C)cc2C2CCCC2)ccc1C(=O)O", "melting point": "55 to 90"},
      {"smiles": "O=C1NC(=S)NC(=O)C1=Cc1ccc([N+](=O)[O-])s1", "melting point": 285},
      {"smiles": "CCCOC1(C(F)(F)F)CN(C2CC2)C(=O)Nc2ccc(Cl)cc21", "note": "(stereo not given)", "melting point": "153 to 154"},
      {"smiles": "CNCC1CCN(c2ccc(Cl)cc2NC(=O)c2csc3cncnc23)CC1", "melting point": "190 to 193"},
      {"smiles": "CCOC(=O)CC(=O)COCC1=C(C(=O)OCC)C(c2ccccc2Cl)C(C(=O)OC)=C(C)N1", "note": "(stereo not given)", "melting point": "88 to 89"},
      {"smiles": "COc1ccc(Cn2nnc(-c3ccc(Cl)cc3Cl)c2N)cc1", "melting point": "134 to 137"},
      {"smiles": "Nc1ccc(S(=O)(=O)n2cc(CC3CCNCC3)c3cc(F)ccc32)cc1", "melting point": "162 to 164"},
      {"smiles": "Nc1onc(C(F)(F)F)c1-c1ccccc1", "melting point": "89 to 91"},
      {"smiles": "CCC1(CCCCCl)C(=O)Nc2cc(F)c(Cl)cc21", "note": "(stereo not given)", "melting point": "131 to 133"}
    ]}
  ]
}
